Data published in US20160264932A1, “METHOD FOR PREPARING CULTURE MEDIUM FOR CULTURING PLANT TISSUE, METHOD FOR CULTURING PLANT TISSUE, STERILIZING AGENT, MICROBICIDAL AGENT, AND CULTURE MEDIUM COMPOSITION FOR CULTURING PLANT TISSUE” (priority 2013, published 2016).

What was measured:
Assay type in all cases: cell-based
plant bodies = test: Influence of agent concentration on growth of plant (solid culture medium, FIG. 6); details: 30 days
Text: The influence of a change in the concentrations of the agents used for sterilizing the culture medium on the growth of plants was investigated. The culture condition in this experiment was as follows:
Culture medium components: solid culture medium dosed with Otsuka-A
Number of plant bodies: 10
Numerical values: average±standard deviation
Sterilizing method: one-time dosing mode
Inoculating method (Culturing method): the method shown in FIG. 4 was used, with SE-P2000Cl140/SE-P2000Cl140 as the first/second microbicidal liquids, respectively.
In FIG. 6, the “Autoclave (Conventional Method)” indicates comparative examples, in which an explant which had undergone a microbicidal treatment in an autoclave was placed in a liquid culture medium and cultured in a clean bench.

[1] = tested on: B5 strain, presumed to be Bacillus subtilis; test: Sterilizing effect of microbicidal liquids in the inoculating process (FIG. 9), B5; details: inoculated on potato explant; explant treated with microbicidal liquid (Cap or Nata 10000 mg/L or higher)
Protocol: (§1) An experiment was conducted to determine how the sterilizing effect after inoculation is related to the concentrations and combination of the agents used in the microbicidal liquid for explants and the microbicidal liquid for culture vessels. The experimental condition was as follows:
(§2) Solid culture medium: dosed with Otsuka-A
(§3) Sterilizing method: autoclave
(§4) Method of inoculation of bacteria: on culture medium surface [as for “B5” and “S3”, 50 μL per test tube of the bacterial suspension was dropped onto the surface of the culture medium; and as for “An”, 10 mg per test tube of either a conidial powder or a conidial powder diluted with a-starch to a predetermined dilution ratio was poured onto the culture medium]; or on explant [as for “B5” and “S3”, the explant was immersed in the bacterial suspension (whereby 10 μL per explant was attached); and as for “An”, the explant was coated with either a conidial powder or a conidial powder diluted with a-starch to a predetermined dilution ratio (whereby 5 mg per explant was attached)]

[2] = tested on: An (filamentous fungus, presumed to be Aspergillus niger complex); test: Sterilizing effect of microbicidal liquids in the inoculating process (FIG. 9), An; details: bacteria inoculated on potato explant, explant treated, 14 days
Protocol: as §1, §2, §3, §4

external bacteria = test: Occurrence rate of microbial contamination of liquid culture medium after sterilization (FIG. 14); details: explants inoculated in a common room, no bacteria inoculated
Protocol: The contamination rate by external bacteria after sterilization of a liquid culture medium was investigated. In any cases, the result was obtained under the condition that the inoculation of explants was performed in a common room with no bacteria inoculated. […] The microbial contamination rate increased when any one of the following agents was omitted: SE-P, Nisin, Ox, Nata, Cap, Imp10 and Cl7.

[3] = tested on: microbial colony formation (bacteria, filamentous fungi); test: Microbial recontamination of sterilized solid culture medium after solidification (FIG. 8)
Protocol: A sterilized culture medium (Otsuka-A solid culture medium) was placed in 50 test tubes held in a tube stand and kept intact on a standard laboratory table (at temperatures of 14-24° C.), and the temporal change in the degree of microbial colony formation was investigated.

[4] = tested on: S3 strain, presumed to be Serratia sp.; test: Sterilizing effect of microbicidal liquids in the inoculating process (FIG. 9), S3; details: inoculated on potato explant; explant treated with microbicidal liquid (Ox 200 mg/L or higher; Nata 10000 mg/L or higher)
Protocol: as §1, §2, §3, §4

| Compound | concentration that did not negatively affect growth (plant bodies) [µg/mL] | formation of B5 colonies [1] | concentration in microbicidal liquid preventing An colony formation to some extent [2] [mg/L] | microbial contamination rate when the agent was omitted (external bacteria) | open storage of the culture ([3]; Natamycin in addition to P1670, Nisaplin and wettable powder STARNER, no ZonenC) | newly invasion of filamentous fungi ([3]; used in addition to P1670, Nisaplin and wettable powder STARNER) | formation of S3 colonies [4] | need of adding the agent to prevent microbial contamination (external bacteria) |
| --- | --- | --- | --- | --- | --- | --- | --- | --- |
| C[C@@H]1C/C=C/C=C/C=C/C=C/[C@H](O[C@@H]2O[C@H](C)[C@@H](O)[C@H](N)[C@@H]2O)C[C@@H]2O[C@](O)(C[C@@H](O)C[C@H]3O[C@@H]3/C=C/C(=O)O1)C[C@H](O)[C@H]2C(=O)O [Natamycin] | ≤ 100 | could not prevent | ≥ 10000 | increased | open storage of the culture was not possible | dramatically decreased | could not prevent |  |
| Egg-white lysozyme |  |  |  |  |  |  |  | not necessary |
